Test results reported in patent publication US20160089319A1, “ACTIVES FOR STIMULATING DIFFERENTIATION OF KERATINOCYTES TO LIGHTEN HYPERPIGMENTED SKIN” (ELC MANAGEMENT LLC, priority 2014, published 2016).

System: basement membrane in hyperpigmented lesions
Experiment: Further studies by the inventors on morphology of the basement membrane in hyperpigmented lesions (results not shown)
Assay type: in vivo
Conditions: formulation containing the substance but no Phytofix

Substance: sodium ribonucleic acid
- improvement of the morphology of the basement membrane: no improvement of the morphology of the basement membrane
